Reference: patent US8119638B2, “Compositions and uses of ET743 for treating cancer” (Pharma Mar, S.A., priority 2007, dated 2012)
Entries after “also recorded” stand apart in the source; their conditions may differ. Like-named read-outs stand apart in the source and are kept apart here.

Experiments:
[1] = tested on: advanced/metastatic soft tissue sarcoma (STS) and gastrointestinal stromal tumor (GIST); assay: Example 1: trials with 24 h iv continuous infusion every 3 or 4 weeks in STS and GIST patients; assay type: in vivo, human; design: tolerability of treatment / safety/toxicities observed: dose or concentration left out as unconfirmed; conditions: for evaluable patients with stable disease or minor responses: after 2 cycles of therapy
sc B 16 tumor = sc B 16 tumor model in male rats, dexamethasone pre-treatment plus ET743; conditions: Day 14, q2dx5, iv; for Vol. (tumor volume): preliminary results
Experimental: The sc B 16 tumor model in male rats was used to compare dexamethasone pre-treated (3 mg/kg total dose; −15 min.), ET743 (90 μg/kg TD) animals to ET alone on a q2dx5, iv, schedule.

[2] = tested on: advanced and/or metastatic cancers refractory to previous treatments; assay: Clinical trials using the method of the invention: plasma levels and objective responses; assay type: in vivo, human
Experimental: The administration is performed in cycles, in the preferred application method, an intravenous infusion of ET734 is given to the patients the first week of each cycle, the patients are allowed to recover for the remainder of the cycle. The preferred duration of each cycle is of either 3 or 4 weeks; multiple cycles can be given as needed. The drug may also be administered each of the first days of each cycle. Dose delays and/or dose reductions and schedule adjustments are performed as needed depending on individual patient tolerance of treatments, in particular does reductions are recommended for patients with higher than normal serum levels of liver transaminases or alkaline phosphatase, or bilirubin.
Definitions for patient responses are adopted from WHO Common Toxicity Criteria and the responses determined following standard medical practice in the field.

[3] = tested on: advanced/metastatic breast cancer; assay: Example 2: trial with 24 h iv continuous infusion every 3 weeks in pretreated breast cancer patients; assay type: in vivo, human
Experimental: Data was analyzed from a trial with 24 h iv continues infusion of ET 743 every 3 weeks on 20 pretreated advanced/metastatic breast cancer patients, at a dose level of 1500 μg/m^2.
all presenting measurable disease and progressing at study entry age 33 to 64 years (median 50 yrs)
performance status 0-1 (ECOG criteria)
[…] number of involved organs: 2 (range 1-6)

[4] = tested on: xenografts of breast cancer, non-small cell lung, melanoma and ovarian cancer; conditions: cited from earlier work
[5] = tested on: advanced/metastatic soft tissue sarcoma; assay: Example 3: trial with 24 h iv continuous infusion every 3 weeks in pretreated sarcoma patients; assay type: in vivo, human
Experimental: Data was analyzed from a trial with 24 h iv continues infusion of ET 743 every 3 weeks on 20 pretreated advanced/metastatic soft tissue sarcoma patients, with all except two patients being treated at a dose level of 1500 μg/m^2
35 Soft tissue sarcoma (STS)
22 patients had bulky disease at study entry, with 56% of disease progression under prior regime
age 16 to 71 years (median 45 yrs)
performance status 0 (0-2) (ECOG criteria)
[…] number of prior chemotherapy treatments 2 (1-7)
Most patients had received as prior chemotherapy treatments Anthracyclines and alkylators

[6] = tested on: advanced/metastatic soft tissue sarcoma; assay: as above; assay type: in vivo, human; conditions: 34 evaluable patients
[7] = for recommended dose level (RD): patients
Excerpt: The method consists of administration of drug by intravenous infusion over a period of 72 hrs or less at the recommended dose level (RD) with or without combination with other therapeutic agents.
The Recommended Dose (RD) is the highest dose which can be safely administered to a patient producing tolerable, manageable and reversible toxicity according to the Common Toxicity Criteria established by the National Cancer Institute (USA), with no more than 2 out of 6 patients presenting any dose limiting toxicities (DLT). Guidelines for cancer therapy frequently call for administration of chemotherapeutic agents at the highest safe dose at which toxicity is manageable in order to achieve maximum efficacy (DeVita, V. T. Jr., Hellman, S, and Rosenberg, S. A., Cancer: Principles and Practice of Oncology, 3rd ed., 1989, Lipincott, Philadelphia).

[8] = tested on: advanced and/or metastatic cancers refractory to previous treatments; conditions: cited from earlier work
[9] = 56 cycles administered, 1500 μg/m^2 24 h infusion every 3 weeks
[10] = 24 h iv continuous infusion every 3 or 4 weeks

With `C[C@@H]1C[C@H]2[C@@H]3CCC4=CC(=O)C=C[C@]4(C)[C@@]3(F)[C@@H](O)C[C@]2(C)[C@@]1(O)C(=O)CO` [DEX, dexamethasone] the nausea ([1]; dexamethasone as a prophylactic anti emetic with ET 743 24 h infusion) was “essentially eliminated”, the “BW (body weight)” value (sc B 16 tumor) was 217 grams and the “Vol. (tumor volume)” value (sc B 16 tumor) was 17,252 mm^3.
In the case of `COc1cc2c(cc1O)CCN[C@]21CS[C@@H]2c3c(OC(C)=O)c(C)c4c(c3[C@H](COC1=O)N1[C@@H]2[C@H]2c3c(cc(C)c(OC)c3O)C[C@@H]([C@@H]1O)N2C)OCO4` [ET743, ecteinascidin 743], the objective responses ([2]; advanced and/or metastatic cancers refractory to previous treatments: soft tissue, bone and gastrointestinal stromal sarcoma, breast cancer and melanoma) is reported as “Objective responses were obtained”, the clinical marker response ([2]; ovarian cancer) is reported as “positive clinical marker response” and the plasma levels ([2]; patients at RD) is reported as “appropriate plasma levels were achieved”. The activity ([2]; variety of suboptimal schedules, advanced ocular melanoma and mesothelioma) was “Evidence of activity”, the “patients achieving disease stabilization” value ([3]; 16 evaluable patients) was “Six” and the “partial responses (number of patients)” value ([3]; 16 evaluable patients, pleuropulmonary and thoracic skin involvement, no primary resistance to either pretreatment drug) was “Two”. The “Asthenia (grade 2/3), number reported per cycle” value [3, 9] was 13, the “Asthenia (grade 2/3), reported per cycle (percent)” value [3, 9] was 23% and the “Neutropenia, grade 3 or 4 toxicities reported per cycle (percent)” value [3, 9] was 50%. The “Neutropenia, number of grade 3 or 4 toxicities reported per cycle” value [3, 9] was 25, the “Reversible transaminitis, grade 3 or 4 toxicities reported per cycle (percent)” value [3, 9] was 60% and the “Reversible transaminitis, number of grade 3 or 4 toxicities reported per cycle” value [3, 9] was 34. The “Thrombocytopenia, grade 3 or 4 toxicities reported per cycle (percent)” value [3, 9] was 2%, the “Thrombocytopenia, number of grade 3 or 4 toxicities reported per cycle” value [3, 9] was 4 and the “patients with sustained decrease in CA 15-3” value ([3]; among the stabilized patients) was “two”. The “action in animal models” value [4] was “promising action”, the “Acute, reversible transaminitis, grade 3 or 4 toxicities reported per cycle” value ([5]; 137 cycles administered) was 44% and the “Asthenia (grade 2/3), number reported per cycle” value ([5]; 137 cycles administered) was 13. The “Asthenia (grade 2/3), reported per cycle (percent)” value ([5]; 137 cycles administered) was 23%, the “Thrombocytopenia, grade 3 or 4 toxicities reported per cycle” value ([5]; 137 cycles administered) was 5% and the “febrile neutropenia, grade 3 or 4 toxicities reported per cycle” value ([5]; 137 cycles administered) was 6.5%. The “Neutropenia, grade 3 or 4 toxicities reported per cycle” value ([5]; 137 cycles administered, 1500 μg/m^2 24 h infusion every 3 weeks) was 34%, the “responses in osteo sarcomas” value ([5]; osteo sarcoma patients) was 2 out of 3 and the “disease stabilizations (number)” value [6] was 11. The “duration of most disease stabilizations” value [6] was ≥ 3 months, the “minor responses (number)” value [6] was 3 and the “minor responses which became post surgical complete response” value [6] was “one”. For the same molecule, the “partial responses (number)” value [6] was 4, the “partial responses (percent)” value [6] was 11.7% and the “partial responses which became post surgical complete response” value [6] was “two”. The “recommended dose level (RD)” value ([7]; 3 hr intravenous infusions) was 1650 microgram per m2 body surface area, the “recommended dose level (RD)” value ([7]; 3 hr intravenous infusions, listed as ET-743) was 1650 microgram per m2 body surface and the “recommended dose level (RD)” value ([7]; 24 hr intravenous infusions) was 1500 microgram per m2 of body surface area. For the same molecule, the “dose limiting toxicities (DLTs)” value ([7]; human, in vivo) was “myelosuppression and malaise”, the “doses with too large a fraction of patients presenting DLT, too toxic for safe administration” value ([7]; human, in vivo) was ≥ 1800 microgram per m2 and the “patients presenting severe dose limiting toxic responses” value ([7]; human, in vivo) was 2 out of 4. The “therapeutic window / toxicity” value ([7]; human, in vivo) was “positive therapeutic window with manageable toxicity”, the “RD for this schedule” value ([7]; intravenous infusion over 5 consecutive days, 24 hr daily) was 1625 microgram per m2 of body surface area and the “RD for this schedule” value ([7]; intravenous infusion over 72 hr) was 1050 microgram per m2 of body surface area. The safety/toxicities observed [1, 10] was “Myelosuppression; also recorded: Temporary/asymptomatic transaminitis; also recorded: Fatigue”, the tolerability of treatment [1, 10] was “very good” and the “evaluable patients with stable disease or minor responses” value ([1]; STS patients with prior chemotherapy treatment) was 4 out of 12. For the same molecule, the “evaluable patients with stable disease or minor responses” value ([1]; STS patients without any prior chemotherapy treatment) was 6 out of 10, the activity by histology ([1]; liposarcoma, leiomyo sarcoma, and synovial sarcoma) was “preliminary evidence of activity” and the “Vol. (tumor volume)” value (sc B 16 tumor) was 15,243 mm^3. The “patient response (case reported in June 98)” value ([8]; breast cancer, dose level of 1800 microgram m2) was “breast cancer response” and the “patient response (previously reported case)” value ([8]; melanoma patient, 1 hr infusion) was “response in a melanoma patient”.
